The source of these data is patent publication US20010044445A1, “AZOLE INHIBITORS OF CYTOKINE PRODUCTION” (priority 1999, published 2001).

For data set [1], the system named is Human peripheral blood mononuclear cells. Kind of data set: Human Concanavalin-A Proliferation Assay (Con HU Assay). The format is cell-based. Particulars: Homo sapiens, PBMC, concanavalin-A stimulated human PBMC; for inhibition at 10 µM / inhibition at 100 µM / inhibition at 1 µM: 72 h, 3 days, read-out: % Inhibition of proliferation (at concentrations of 1,10, or 100 μm); for inhibition at 10 µM: concentration 10 μm (in parentheses in the cell); for IC50: tritiated thymidine; for inhibition at 100 µM: concentration 100 μm (in parentheses in the cell); for inhibition at 1 µM: concentration 1 μm (in parentheses in the cell). In a few lines: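 Proliferation read as tritiated thymidine uptake (0.5 μCi/well, 6 h pulse on day 3) in human PBMC cultured 3 days with 2.5 μg/ml (final) concanavalin-A. Cells, 50,000 per well in supplemented RPMI 1640 with 10% FBS, received compound 15 min before mitogen.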

Usually IC50 stands for the midpoint of a concentration-inhibition curve. By melting point is commonly meant the temperature of the solid-liquid transition. Turning to `COc1ccc(C(=O)Nc2ccc(-n3nc(C(F)(F)F)cc3C(F)(F)F)cc2)c(Cl)c1` [Example 215, N-[4-[3,5-bis(trifluoromethyl)-1H-pyrazol-1-yl]phenyl]-2-chloro-4-methoxybenzamide], the melting point fell in the range of 140 to 143 °C. Besides, in data set [1], the inhibition at 10 µM came to 100% and the IC50 was found to be 126 nM.
In the case of `CCCCCCOc1ccc(C(=O)Nc2ccc(-n3nc(C(F)(F)F)cc3C(F)(F)F)cc2)cc1` [Example 74, N-[4-[3,5-bis(trifluoromethyl)-1H-pyrazol-1-yl]phenyl]-4-(hexyloxy)benzamide], the melting point lay within 153 to 155 °C. In addition, in data set [1], the inhibition at 100 µM was 83% and the concentration for half-maximal inhibition (IC50) is 22800 nM.
The molecule `O=C1CCC(C(=O)Nc2ccc(-n3nc(C(F)(F)F)cc3C(F)(F)F)cc2)O1` (stereo not drawn) [Example 254, N-[4-[3,5-bis(trifluoromethyl)-1H-pyrazol-1-yl]phenyl]tetrahydro-5-oxo-2-furancarboxamide] displayed a melting point of 172 to 173 °C. In addition, the inhibition at 1 µM in data set [1] was 9%.
`O=C(Nc1ccc(-n2nc(C(F)(F)F)cc2C(F)(F)F)cc1)c1cc(F)c(F)c(F)c1F` [Example 235, N-[4-[3,5-bis(trifluoromethyl)-1H-pyrazol-1-yl]phenyl]-2,3,4,5-tetrafluorobenzamide]: the melting point was 138 to 140 °C. Further, in data set [1], the inhibition at 10 µM came out at 100% and the IC50 was found to be 107 nM.
Taken in the same sequence, the figures for `CC1(C(=O)Nc2ccc(-n3nc(C(F)(F)F)cc3C(F)(F)F)cc2)CC1(Cl)Cl` (stereo not drawn) [Example 3, N-[4-[3,5-bis(trifluoromethyl)-1H-pyrazol-1-yl]phenyl]-2,2-dichloro-1-methylcyclopropanecarboxamide] were 143 to 145 °C, 100% and 328 nM.
The matching figures for `O=C(Nc1ccc(-n2nc(C(F)(F)F)cc2C(F)(F)F)cc1)c1cccc(CO)c1` [Example 51, N-[4-[3,5-bis(trifluoromethyl)-1H-pyrazol-1-yl]phenyl]-3-(hydroxymethyl)benzamide]: 160 to 162 °C, 100% and 778 nM.
For the molecule `O=C(O)c1cccc(C(=O)Nc2ccc(-n3nc(C(F)(F)F)cc3C(F)(F)F)cc2)c1` [Example 159, 3-[[[4-[3,5-bis(trifluoromethyl)-1H-pyrazol-1-yl]phenyl]amino]carbonyl]benzoic acid], the melting point is 244 to 245 °C. Moreover, in data set [1], the inhibition at 10 µM came to 93% and the IC50 worked out at 2930 nM.
`O=C(Nc1ccc(-n2nc(C(F)(F)F)cc2C(F)(F)F)cc1)c1nc(Cl)ccc1Cl` [Example 167, N-[4-[3,5-bis(trifluoromethyl)-1H-pyrazol-1-yl]phenyl]-3,6-dichloro-2-pyridinecarboxamide] displayed a melting point of 118 to 119 °C. Also, in data set [1], the inhibition at 100 µM is 100% and the IC50 was 279 nM.
Regarding `N#Cc1ccc(NC(=O)c2ccc(-n3nc(C(F)(F)F)cc3C(F)(F)F)cc2)cc1` [Example 193, 4-[3,5-Bis(trifluoromethyl)-1H-pyrazol-1-yl]-N-(4-cyanophenyl)benzamide], the melting point fell in the range of 192 to 193 °C. For the same molecule, the inhibition at 1 µM in data set [1] worked out at 8%.
As for `O=C(Nc1ccc(-n2nc(C(F)(F)F)cc2C(F)(F)F)cc1)c1ccc(C(F)(F)F)cc1` [Example 89, N-[4-[3,5-bis(trifluoromethyl)-1H-pyrazol-1-yl]phenyl]-4-(trifluoromethyl)benzamide], the melting point was 170 to 172 °C. In data set [1], the inhibition at 100 µM came to 99% and the IC50 amounted to 1230 nM.
Regarding `N#Cc1cc(C(F)(F)F)nn1-c1ccc(NC(=O)c2cccnc2F)cc1` [Example 306, N-(4-(5-cyano-3-(trifluoromethyl)-1H-pyrazol-1-yl)phenyl)-2-fluoronicotinamide], the melting point is 150 to 151 °C. Besides, half-maximal inhibition in data set [1] (IC50) required 265 nM.
Consider `N#Cc1ccc(C(=O)Nc2cccc(-n3nc(C(F)(F)F)cc3C(F)(F)F)c2)cc1` [Example 238, N-[3-[3,5-bis(trifluoromethyl)-1H-pyrazol-1-yl]phenyl]-4-cyanobenzamide], for which the melting point is 133 to 134 °C. Further, the inhibition at 1 µM in data set [1] came out at 3%.
`O=C(Nc1ccc(-n2nc(C(F)(F)F)cc2C(F)(F)F)cc1)c1ccc(F)cc1` [Example 90, N-[4-[3,5-bis(trifluoromethyl)-1H-pyrazol-1-yl]phenyl]-4-fluorobenzamide]: the melting point is 184 to 186 °C. Further, in data set [1], the inhibition at 100 µM was 98% and the IC50 was determined as 144 nM.
Take `CSc1cc(C(F)(F)F)nn1-c1ccc(NC(=O)c2ccncc2F)cc1` [Example 320, 3-fluoro-N-(4-(5-(methylsulfanyl)-3-(trifluoromethyl)-1H-pyrazol-1-yl)phenyl)isonicotinamide]: the melting point was in the range of 142 to 143 °C. For the same molecule, the IC50 in data set [1] was 43 nM.
`O=C(Nc1cccc(-n2nc(C(F)(F)F)cc2C(F)(F)F)c1)c1ccc(F)cc1` [Example 202, N-[3-[3,5-bis(trifluoromethyl)-1H-pyrazol-1-yl]phenyl]-4-fluorobenzamide] displayed a melting point of 150 to 152 °C. Further, in data set [1], the inhibition at 1 µM stood at 6%.
With `O=C(Nc1ccc(-n2nc(C(F)(F)F)cc2C(F)(F)F)cc1)c1cccc([N+](=O)[O-])c1` [Example 140, N-[4-[3,5-bis(trifluoromethyl)-1H-pyrazol-1-yl]phenyl]-3-nitrobenzamide], the melting point fell in the range of 203 to 204 °C. In data set [1], the inhibition at 100 µM amounted to 100% and the IC50 is 298 nM.
In the case of `NS(=O)(=O)c1cccc(C(=O)Nc2ccc(-n3nc(C(F)(F)F)cc3C(F)(F)F)cc2)c1` [Example 141, 3-(aminosulfonyl)-N-[4-[3,5-bis(trifluoromethyl)-1H-pyrazol-1-yl]phenyl]benzamide], the melting point was in the range of 177 to 178 °C. Moreover, the inhibition at 1 µM in data set [1] turned out to be 4%.
`O=C(Nc1ccc(-n2nc(C(F)(F)F)cc2C(F)(F)F)cc1)C1CCCN1` (stereo not drawn) [Example 242, N-[4-[3,5-bis(trifluoromethyl)-1H-pyrazol-1-yl]phenyl]-2-pyrrolidinecarboxamide]: the melting point fell in the range of 82 to 84 °C. Besides, the inhibition at 1 µM in data set [1] amounted to 3%.
In the case of `O=C(Nc1ccc(-n2nc(C(F)(F)F)cc2C(F)(F)F)nc1)c1ccccc1Cl` [Example 260, N-[2-[3,5-bis(trifluoromethyl)-1H-pyrazol-1-yl]-5-pyridinyl]-2-chlorobenzamide], the melting point was 156 to 159 °C. In data set [1], the inhibition at 10 µM worked out at 96% and the IC50 was determined as 369 nM.
For the molecule `O=C(Nc1ccc(-n2nc(C(F)(F)F)cc2C(F)(F)F)cc1)c1cccnc1Cl` [Example 150, N-[4-[3,5-bis(trifluoromethyl)-1H-pyrazol-1-yl]phenyl]-2-chloro-3-pyridinecarboxamide], the melting point was 145 to 147 °C. For the same molecule, in data set [1], the inhibition at 100 µM was 100% and the half-inhibitory concentration (IC50) was found to be 244 nM.
Consider `N#Cc1ccc(C(=O)Nc2ccc(-n3nc(C(F)(F)F)cc3C(F)(F)F)cc2)cc1` [Example 67, N-[4-[3,5-bis(trifluoromethyl)-1H-pyrazol-1-yl]phenyl]-4-cyanobenzamide], for which the melting point was 169 to 171 °C. Also, in data set [1], the inhibition at 100 µM is 100% and the midpoint of inhibition, the IC50, lay at 254 nM.
With `O=C(Nc1ccc(-n2nc(C(F)(F)F)cc2C(F)(F)F)cc1)c1cc(Cl)ccc1Cl` [Example 208, N-[4-[3,5-bis(trifluoromethyl)-1H-pyrazol-1-yl]phenyl]-2,5-dichlorobenzamide], the melting point was in the range of 154 to 156 °C. In data set [1], the inhibition at 10 µM was 99% and the IC50 was determined as 149 nM.
`Cc1ccoc1C(=O)Nc1ccc(-n2nc(C(F)(F)F)cc2C(F)(F)F)cc1` [Example 252, N-[4-[3,5-bis(trifluoromethyl)-1H-pyrazol-1-yl]phenyl]-3-methyl-2-furancarboxamide] registered a melting point of 119 to 120 °C. The inhibition at 1 µM in data set [1] stood at 36%.
With `O=C(Nc1ccc(-n2nc(C(F)(F)F)cc2C(F)(F)F)cc1)c1ccccc1O` [Example 103, N-[4-[3,5-bis(trifluoromethyl)-1H-pyrazol-1-yl]phenyl]-2-hydroxybenzamide], the melting point fell in the range of 173 to 175 °C. Moreover, the inhibition at 1 µM in data set [1] is 14%.
`O=C(Nc1ccc(-n2nc(C(F)(F)F)cc2C(F)(F)F)cc1)Nc1ccc([N+](=O)[O-])cc1Cl` [Example 41, N-[4-[3,5-bis(trifluoromethyl)-1H-pyrazol-1-yl]phenyl]-N′-(2-chloro-4-nitrophenyl)urea] came in with a melting point of 229 to 230 °C. Further, in data set [1], the inhibition at 10 µM was determined as 100% and the IC50 was 343 nM.
`COc1cc(C(F)(F)F)nn1-c1ccc(NC(=O)c2ccncc2F)cc1` [Example 321, 3-fluoro-N-(4-(5-methoxy-3-(trifluoromethyl)-1H-pyrazol-1-yl)phenyl)isonicotinamide] came in with a melting point of 160 to 161 °C. The same molecule registered an IC50 in data set [1] of 185 nM.
The matching figures for `O=C(Nc1ccc(-n2nc(C(F)(F)F)nc2Cl)cc1)c1ccncc1F` [Example 336, N-(4-(5-chloro-3-(trifluoromethyl)-1H-1,2,4-triazol-1-yl)phenyl)-3-fluoroisonicotinamide]: 167 to 170 °C and 1830 nM.
